In one assay the target is recombinant human S1P1 receptor (Homo sapiens, UniProt P21453). Description: GTPγS assay to determine EC50 values. The class given is biochemical. The conditions noted are these: agonistic activity; 35S-GTPγS binding, membrane preparations of CHO cells expressing recombinant human S1P1 receptor. As for the experimental part:
GTPγS binding assays are performed in 96 well microtiter plates (Nunc, 442587) in a final volume of 200 μl, using membrane preparations of CHO cells expressing recombinant human S1P1 receptor. Assay conditions are 20 mM Hepes (Fluka, 54461), 100 mM NaCl (Fluka, 71378), 5 mM MgCl2(Fluka, 63064), 0.1% BSA (Calbiochem, 126609), 1 μM GDP (Sigma, G-7127), 2.5% DMSO (Fluka, 41644), […] ^35S-GTPγS (Amersham Biosciences, SJ1320). The pH is 7.4. Test compounds are dissolved and diluted in 100% DMSO and pre-incubated at room temperature for 30 min in 150 μl of the above assay buffer, in the absence of ^35S-GTPγS. After addition of 50 μl of ^35S-GTPγS, the assay is incubated for 1 h at rt. The assay is terminated by transfer of the reaction mixture to a Multiscreen plate (Millipore, MAHFC1H60) using a cell harvester from Packard Biosciences, and the plates are washed with ice-cold 10 mM Na2HPO4/NaH2PO4 (70%/30%), dried, sealed at the bottom and, after addition of 25 μl MicroScint20 (Packard Biosciences, order#6013621), sealed on the top. Membrane-bound ^35S-GTPγS is measured with a TopCount from Packard Biosciences.
EC50 is the concentration of agonist inducing 50% of the maximal specific ^35S-GTPγS binding. Specific binding is determined by subtracting non-specific binding from maximal binding. Maximal binding is the amount of cpm bound to the Multiscreen plate in the presence of 10 μM of S1P. Non-specific binding is the amount of binding in the absence of an agonist in the assay.
Chain of recombinant human S1P1 receptor (P21453 whole entry): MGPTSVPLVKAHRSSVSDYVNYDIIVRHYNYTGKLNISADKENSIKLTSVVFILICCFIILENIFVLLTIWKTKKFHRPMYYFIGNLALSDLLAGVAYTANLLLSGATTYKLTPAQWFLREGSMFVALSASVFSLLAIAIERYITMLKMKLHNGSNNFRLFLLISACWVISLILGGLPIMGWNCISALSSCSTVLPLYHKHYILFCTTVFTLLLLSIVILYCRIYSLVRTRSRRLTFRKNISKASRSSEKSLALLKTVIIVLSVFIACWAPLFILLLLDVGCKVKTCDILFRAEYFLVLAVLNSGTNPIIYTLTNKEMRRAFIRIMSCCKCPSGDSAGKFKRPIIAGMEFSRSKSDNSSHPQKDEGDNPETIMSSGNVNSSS
Turning to `CCc1cc(-c2noc(-c3cc(C)nc(NC(C)C)c3)n2)cc(C)c1OC[C@@H](O)CNC(=O)CO` [Example 203, N—((S)-3-{2-ethyl-4-[5-(2-isopropylamino-6-methyl-pyridin-4-yl)-[1,2,4]oxadiazol-3-yl]-6-methyl-phenoxy}-2-hydroxy-propyl)-2-hydroxy-acetamide], the EC50 was determined as 0.5 nM.

Regarding `CCc1cc(-c2noc(-c3cc(C)nc(N(CC)CC)c3)n2)cc(C)c1OCC(O)CO` (racemic) [Example 15, rac-3-{4-[5-(2-Diethylamino-6-methyl-pyridin-4-yl)-[1,2,4]oxadiazol-3-yl]-2-ethyl-6-methyl-phenoxy}-propane-1,2-diol], the 50% effective concentration (EC50) stood at 1.2 nM.

Regarding `COc1cc(OC[C@H](O)CNC(=O)CO)ccc1-c1noc(-c2cc(C)nc(N(C)C(C)C)c2)n1` [Example 159, 2-hydroxy-N—[(R)-2-hydroxy-3-(4-{5-[2-(isopropyl-methyl-amino)-6-methyl-pyridin-4-yl]-[1,2,4]oxadiazol-3-yl}-3-methoxy-phenoxy)-propyl]-acetamide], the EC50 was 5.1 nM.

As for `CCN(CC)c1cc(-c2nc(-c3cc(C)c(OC[C@@H](O)CNC(=O)CO)c(Cl)c3)no2)cc(C)n1` [Example 109, N—((S)-3-{2-chloro-4-[5-(2-diethylamino-6-methyl-pyridin-4-yl)-[1,2,4]oxadiazol-3-yl]-6-methyl-phenoxy}-2-hydroxy-propyl)-2-hydroxy-acetamide], the 50% effective concentration (EC50) came to 0.5 nM.

Consider `Cc1cc(-c2nc(-c3cc(C)c(OC[C@@H](O)CNC(=O)CO)c(Cl)c3)no2)cc(N(C)C(C)C)n1` [Example 146, N—[(S)-3-(2-chloro-4-{5-[2-(isopropyl-methyl-amino)-6-methyl-pyridin-4-yl]-[1,2,4]oxadiazol-3-yl}-6-methyl-phenoxy)-2-hydroxy-propyl]-2-hydroxy-acetamide], for which the EC50 was determined as 0.8 nM.

`CCN(CC)c1cc(-c2nc(-c3cc(Cl)c(OC[C@H](O)CNC(=O)CO)c(OC)c3)no2)cc(C)n1` [Example 116, N—((R)-3-{2-chloro-4-[5-(2-diethylamino-6-methyl-pyridin-4-yl)-[1,2,4]oxadiazol-3-yl]-6-methoxy-phenoxy}-2-hydroxy-propyl)-2-hydroxy-acetamide]: the EC50 is 2 nM.

As for `CCc1cc(-c2nc(-c3cc(C)c(OCC(O)CNC(=O)CO)c(CC)c3)no2)cc(N(C)C)n1` (racemic) [Example 32, rac-N-(3-{4-[5-(2-Dimethylamino-6-ethyl-pyridin-4-yl)-[1,2,4]oxadiazol-3-yl]-2-ethyl-6-methyl-phenoxy}-2-hydroxy-propyl)-2-hydroxy-acetamide], the EC50 came out at 1.2 nM.

In the case of `CCc1cc(-c2noc(-c3cc(C)nc(N(C)C(C)C)c3)n2)cc(C)c1CCC(=O)NCCC(=O)O` [Example 26, 3-[3-(2-Ethyl-4-{5-[2-(isopropyl-methyl-amino)-6-methyl-pyridin-4-yl]-[1,2,4]oxadiazol-3-yl}-6-methyl-phenyl)-propionylamino]-propionic acid], the EC50 was 2.6 nM.

With `CCCc1cc(-c2noc(-c3cc(C)nc(N(C)C(C)C)c3)n2)cc(C)c1OC[C@@H](O)CNC(=O)CO` [Example 139, 2-hydroxy-N—[(S)-2-hydroxy-3-(4-{5-[2-(isopropyl-methyl-amino)-6-methyl-pyridin-4-yl]-[1,2,4]oxadiazol-3-yl}-2-methyl-6-propyl-phenoxy)-propyl]-acetamide], the EC50 turned out to be 2 nM.

With `CCc1cc(-c2nc(-c3cc(C)nc(N(CC)CC)c3)no2)cc(C)c1OC[C@H](O)CNC(=O)CO` [Example 79, N—((R)-3-{4-[3-(2-diethylamino-6-methyl-pyridin-4-yl)-[1,2,4]oxadiazol-5-yl]-2-ethyl-6-methyl-phenoxy}-2-hydroxy-propyl)-2-hydroxy-acetamide], the EC50 turned out to be 1.4 nM.

For `CCc1cc(-c2noc(-c3cc(C)nc(N(C)C(C)C)c3)n2)cc(C)c1OC[C@@H](O)CNC(=O)CO` [Example 130, N—[(S)-3-(2-ethyl-4-{5-[2-(isopropyl-methyl-amino)-6-methyl-pyridin-4-yl]-[1,2,4]oxadiazol-3-yl}-6-methyl-phenoxy)-2-hydroxy-propyl]-2-hydroxy-acetamide], the EC50 came out at 0.1 nM.

With `CCc1cc(-c2nc(-c3cc(C)c(OC[C@@H](O)CNC(=O)CO)c(CC)c3)no2)cc(N(C)C)n1` [Example 192, N—((S)-3-{4-[5-(2-dimethylamino-6-ethyl-pyridin-4-yl)-[1,2,4]oxadiazol-3-yl]-2-ethyl-6-methyl-phenoxy}-2-hydroxy-propyl)-2-hydroxy-acetamide], the EC50 amounted to 0.2 nM.

Consider `Cc1cc(-c2nc(-c3cc(C)c(OC[C@@H](O)CO)c(C)c3)no2)cc(N(C)C(C)C)n1` [Example 22, (S)-3-(4-{5-[2-(Isopropyl-methyl-amino)-6-methyl-pyridin-4-yl]-[1,2,4]oxadiazol-3-yl}-2,6-dimethyl-phenoxy)-propane-1,2-diol], for which the EC50 stood at 0.7 nM.

On to `Cc1cc(-c2nc(-c3cc(C)c(O)c(C)c3)no2)cc(N(C)C(C)C)n1` [Example 21, 4-{5-[2-(Isopropyl-methyl-amino)-6-methyl-pyridin-4-yl]-[1,2,4]oxadiazol-3-yl}-2,6-dimethyl-phenol], for which the EC50 worked out at 3.6 nM.

`CCc1cc(-c2nnc(-c3cc(C)nc(N(CC)CC)c3)o2)cc(C)c1OC[C@@H](O)CNC(=O)CO` [Example 87, N—((S)-3-{4-[5-(2-diethylamino-6-methyl-pyridin-4-yl)-[1,3,4]oxadiazol-2-yl]-2-ethyl-6-methyl-phenoxy}-2-hydroxy-propyl)-2-hydroxy-acetamide]: the EC50 turned out to be 3.4 nM.

As for `CCc1cc(-c2noc(-c3cc(C)nc(N(C)CC(C)C)c3)n2)cc(C)c1OC[C@@H](O)CNC(=O)CO` [Example 232, N—[(S)-3-(2-ethyl-4-{5-[2-(isobutyl-methyl-amino)-6-methyl-pyridin-4-yl]-[1,2,4]oxadiazol-3-yl}-6-methyl-phenoxy)-2-hydroxy-propyl]-2-hydroxy-acetamide], the EC50 stood at 4.1 nM.

The assay is the same for the next values; noted with them: agonistic activity; 35S-GTPγS binding, membranes of CHO cells expressing recombinant human S1P1 receptor.
Turning to `CCc1cc(-c2nnc(-c3cc(C)nc(N(C)C(C)C)c3)s2)cc(C)c1OC[C@H](O)CN` [Example 178], the EC50 was above 10000 nM.

In the case of `CCc1cc(-c2nnc(-c3cc(C)nc(N(C)C(C)C)c3)s2)cc(C)c1OC[C@@H](O)CN` [Example 179], the EC50 was above 10000 nM.

For the compound `CCc1cc(-c2noc(-c3cc(C)nc(N4CCOCC4)c3)n2)cc(C)c1OC[C@H](O)CN` [Example 208], the EC50 was above 10000 nM.

For `CCc1cc(-c2nnc(-c3cc(C)nc(N(CC)CC)c3)s2)cc(C)c1OC[C@@H](O)CO` [Example 90], the EC50 is above 10000 nM.

Regarding `CCc1cc(-c2noc(-c3cc(C)nc(N(C)CC(C)C)c3)n2)cc(C)c1OCC(O)CO` (racemic) [Example 34, rac-3-(2-Ethyl-4-{5-[2-(isobutyl-methyl-amino)-6-methyl-pyridin-4-yl]-[1,2,4]oxadiazol-3-yl}-6-methyl-phenoxy)-propane-1,2-diol], the EC50 was above 10000 nM.

Consider `CCc1cc(-c2noc(-c3cc(C)nc(N4CCOCC4)c3)n2)cc(C)c1OC[C@@H](O)CN` [Example 209], for which the half-maximal effective concentration (EC50) was above 10000 nM.

Consider `CCc1cc(-c2nnc(-c3cc(C)nc(N(C)C(C)C)c3)s2)cc(C)c1OC[C@H](O)CO` [Example 176], for which the EC50 was above 10000 nM.

Values taken from US8592460B2, “Amino-pyridine derivatives as S1P1 /EDG1 receptor agonists” (Actelion Pharmaceuticals Ltd., priority 2007, dated 2013).
